According to ChEMBL document CHEMBL1201862, “PubChem BioAssay data set” (2004):
Calls of active or inactive are those of the source.

How the values were obtained:
[1] = molecular target: T1, NADPH oxidase 1 (Homo sapiens, UniProt Q9Y5S8); assay: Late-stage luminescence-based cell-based dose response assay to identify inhibitors of NADPH oxidase 1 (NOX1): Purchased analogs 2.; type: functional
T1 sequence (Q9Y5S8 whole entry): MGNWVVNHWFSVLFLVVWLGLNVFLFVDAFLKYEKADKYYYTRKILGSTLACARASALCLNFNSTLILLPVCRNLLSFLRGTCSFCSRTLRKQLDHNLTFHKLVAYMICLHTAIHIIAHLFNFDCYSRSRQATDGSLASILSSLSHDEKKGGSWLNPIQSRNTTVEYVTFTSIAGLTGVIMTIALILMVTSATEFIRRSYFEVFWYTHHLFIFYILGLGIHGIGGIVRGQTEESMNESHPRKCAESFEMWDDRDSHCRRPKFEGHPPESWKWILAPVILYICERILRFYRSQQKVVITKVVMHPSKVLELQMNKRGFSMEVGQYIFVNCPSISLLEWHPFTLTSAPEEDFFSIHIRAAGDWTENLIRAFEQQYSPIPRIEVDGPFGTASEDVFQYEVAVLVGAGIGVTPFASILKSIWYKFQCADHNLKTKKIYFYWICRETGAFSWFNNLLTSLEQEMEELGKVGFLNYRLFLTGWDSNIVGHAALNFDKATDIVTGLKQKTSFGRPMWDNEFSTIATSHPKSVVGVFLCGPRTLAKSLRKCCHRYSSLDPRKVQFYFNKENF

[2] = system: Streptococcus; assay: Group A Streptococcus viability loss, dose response, counter-screen for streptokinase expression inhibitor project, luminescence, BacTiterGlo (AID 1915); type: functional, organism-based;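 further: potency for reduction of bacterial viability or growth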
[3] = system: Streptococcus sp. 'group A'; assay: growth inhibition of control SK(-) GAS strain, dose response, counter-screen for streptokinase expression inhibitor project, luminescence, kanamycin, BacTiterGlo, confirmation (AID 1900); type: functional, organism-based
[4] = Luminescent dose response cell-based high throughput screening assay for inhibitors of the Janus kinase 2 mutant JAK2V617F. [Related pubchem assays: 1446 (Primary screen.), 1521 (Confirmation assay.), 1486 (Counter screen.)]; type: functional
[5] = molecular target: T2, Streptokinase A (Streptococcus pyogenes serotype M1, UniProt P10520); assay: S. pyogenes streptokinase expression inhibitors, potency, dose response, plasminogen activation absorbance, OD405 (AID 1914); type: functional, Streptococcus pyogenes M1 GAS;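 further: secreted streptokinase activity via plasminogen activation per viability signal from cell pellet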
T2 sequence (P10520 whole entry): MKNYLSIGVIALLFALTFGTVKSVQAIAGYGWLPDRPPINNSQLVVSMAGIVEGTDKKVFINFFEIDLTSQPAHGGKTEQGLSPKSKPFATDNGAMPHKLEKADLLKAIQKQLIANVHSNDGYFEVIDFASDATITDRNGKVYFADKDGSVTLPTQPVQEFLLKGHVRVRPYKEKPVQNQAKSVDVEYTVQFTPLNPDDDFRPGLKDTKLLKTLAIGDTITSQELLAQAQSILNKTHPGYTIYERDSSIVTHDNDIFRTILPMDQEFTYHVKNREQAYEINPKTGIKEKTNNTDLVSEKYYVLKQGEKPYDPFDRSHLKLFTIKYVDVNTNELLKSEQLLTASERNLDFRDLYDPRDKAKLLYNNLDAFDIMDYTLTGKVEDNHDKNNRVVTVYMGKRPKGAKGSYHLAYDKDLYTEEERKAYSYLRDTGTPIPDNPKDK

[6] = molecular target: T3, Small ubiquitin-related modifier 1 (Homo sapiens, UniProt P63165); assay: inhibitors of SUMO1 partner interactions, dose response, biochemical, FRET (AID 624383); type: functional; settings: read-out: IC50_Mean
[7] = molecular target: Eukaryotic translation initiation factor 4E (Mus musculus, UniProt P63073); assay: eIF4E–eIF4G protein interaction inhibitors, dose response, biochemical, TR-FRET (AID 855); type: functional;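 further: potency for disrupting eIF4E binding to eIF4GI seen as loss of FRET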
[8] = molecular target: T4, Small ubiquitin-related modifier 2 (Homo sapiens, UniProt P61956); assay: inhibitors of SUMO2 protein-protein interaction, dose response, selectivity assay for SUMO1 interaction inhibitor project, biochemical, FRET, human SUMO2, uHTS hits (AID 624384); type: functional; settings: read-out: IC50_Mean
[9] = molecular target: T3, Small ubiquitin-related modifier 1; assay: inhibitors of SUMO1 peptide binding, dose response, biochemical, fluorescence polarization, uHTS hits (AID 624382); type: functional; settings: read-out: IC50_Mean
[10] = molecular target: Acetyl-CoA acetyltransferase/HMG-CoA reductase (Enterococcus faecalis, UniProt Q9FD70); assay: inhibitors of E. faecalis class II HMGR, confirmation, biochemical, Enterococcus faecalis (AID 1233); type: functional
[11] = molecular target: T4, Small ubiquitin-related modifier 2; assay: SUMO2–SIM peptide binding inhibitors, dose response, selectivity assay for SUMO1 interaction inhibitor project, biochemical, fluorescence polarization, uHTS hits (AID 624385); type: functional; settings: read-out: IC50_Mean
[12] = molecular target: Genome polyprotein (Hepatitis C virus, UniProt Q2Q167); assay: HCV core protein dimerization inhibitors, dose response, biochemical, TR-FRET (AID 2159); parameters: species or system Hepacivirus hominis;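 further: blocks dimerization of HCV core protein measured by TR-FRET between tagged core106 pairs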
[13] = Jurkat T cell cytotoxicity, dose response, cytotoxicity control for P. falciparum gametocyte viability project, luminescence (AID 1117277); type: functional, cell-based;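 further: potency reflects loss of cellular ATP meaning fewer viable cells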
[14] = molecular target: Induced myeloid leukemia cell differentiation protein Mcl-1 (Homo sapiens, UniProt Q07820); type: functional
[15] = P. falciparum late gametocyte killing, dose response, luminescence (AID 1117278); type: functional, cell-based;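 further: gametocytes exposed to compound for 24 hours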
[16] = cells; type: functional
[17] = M. tuberculosis growth inhibition, HTS (AID 449762); type: functional
[18] = molecular target: Voltage-gated inwardly rectifying potassium channel KCNH2 (Homo sapiens, UniProt Q12809); assay: hERG protection from proarrhythmic block, potency, dose response, cell-based, thallium flux (AID 2121); type: ADME
[19] = molecular target: T5, Corticotropin-releasing factor receptor 2/Corticotropin-releasing factor-binding protein (Homo sapiens, UniProt P24387+Q13324); assay: activators of CRF receptor 2 with binding protein – uHTS hits, confirmation (AID 602473); type: functional; settings: read-out: EC50_Mean
T5 sequence (Q13324 whole entry): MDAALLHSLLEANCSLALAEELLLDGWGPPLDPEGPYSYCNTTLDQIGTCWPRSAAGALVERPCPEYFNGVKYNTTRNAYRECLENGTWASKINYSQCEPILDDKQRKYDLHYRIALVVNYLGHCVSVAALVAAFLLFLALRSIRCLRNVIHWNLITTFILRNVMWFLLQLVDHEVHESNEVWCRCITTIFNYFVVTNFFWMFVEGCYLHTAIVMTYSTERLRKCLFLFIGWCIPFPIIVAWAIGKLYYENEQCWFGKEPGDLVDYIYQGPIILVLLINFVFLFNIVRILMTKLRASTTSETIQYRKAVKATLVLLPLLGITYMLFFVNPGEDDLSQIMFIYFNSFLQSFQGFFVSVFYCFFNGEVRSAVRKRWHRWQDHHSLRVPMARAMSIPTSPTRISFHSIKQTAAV
T5 sequence (P24387 whole entry): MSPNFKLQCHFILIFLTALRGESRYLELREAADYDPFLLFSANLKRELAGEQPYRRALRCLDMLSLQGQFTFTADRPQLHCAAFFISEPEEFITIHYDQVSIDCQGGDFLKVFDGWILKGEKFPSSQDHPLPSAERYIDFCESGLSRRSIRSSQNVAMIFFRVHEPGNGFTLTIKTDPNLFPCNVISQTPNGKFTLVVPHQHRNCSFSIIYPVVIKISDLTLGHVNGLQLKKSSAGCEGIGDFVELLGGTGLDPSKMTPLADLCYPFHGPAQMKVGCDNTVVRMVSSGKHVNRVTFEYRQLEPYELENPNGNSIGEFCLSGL

[20] = M. tuberculosis H37Rv growth inhibitors, H37Rv strain (AID 1626); type: functional

T3 sequence (P63165 whole entry): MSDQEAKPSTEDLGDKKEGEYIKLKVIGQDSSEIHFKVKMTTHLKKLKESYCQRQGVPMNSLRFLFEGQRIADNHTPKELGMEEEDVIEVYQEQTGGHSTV
T4 sequence (P61956 whole entry): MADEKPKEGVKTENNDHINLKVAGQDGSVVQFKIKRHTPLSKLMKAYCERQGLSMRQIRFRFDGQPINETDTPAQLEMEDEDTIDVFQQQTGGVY
Eukaryotic translation initiation factor 4E, sequence (P63073 whole entry): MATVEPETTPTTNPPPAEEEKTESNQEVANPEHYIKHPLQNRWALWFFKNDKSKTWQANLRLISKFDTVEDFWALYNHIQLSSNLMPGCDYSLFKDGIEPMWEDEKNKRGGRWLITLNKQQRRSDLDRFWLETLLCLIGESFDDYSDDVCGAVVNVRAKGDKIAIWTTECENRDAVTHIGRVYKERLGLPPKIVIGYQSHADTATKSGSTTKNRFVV
Voltage-gated inwardly rectifying potassium channel KCNH2, sequence (Q12809 whole entry): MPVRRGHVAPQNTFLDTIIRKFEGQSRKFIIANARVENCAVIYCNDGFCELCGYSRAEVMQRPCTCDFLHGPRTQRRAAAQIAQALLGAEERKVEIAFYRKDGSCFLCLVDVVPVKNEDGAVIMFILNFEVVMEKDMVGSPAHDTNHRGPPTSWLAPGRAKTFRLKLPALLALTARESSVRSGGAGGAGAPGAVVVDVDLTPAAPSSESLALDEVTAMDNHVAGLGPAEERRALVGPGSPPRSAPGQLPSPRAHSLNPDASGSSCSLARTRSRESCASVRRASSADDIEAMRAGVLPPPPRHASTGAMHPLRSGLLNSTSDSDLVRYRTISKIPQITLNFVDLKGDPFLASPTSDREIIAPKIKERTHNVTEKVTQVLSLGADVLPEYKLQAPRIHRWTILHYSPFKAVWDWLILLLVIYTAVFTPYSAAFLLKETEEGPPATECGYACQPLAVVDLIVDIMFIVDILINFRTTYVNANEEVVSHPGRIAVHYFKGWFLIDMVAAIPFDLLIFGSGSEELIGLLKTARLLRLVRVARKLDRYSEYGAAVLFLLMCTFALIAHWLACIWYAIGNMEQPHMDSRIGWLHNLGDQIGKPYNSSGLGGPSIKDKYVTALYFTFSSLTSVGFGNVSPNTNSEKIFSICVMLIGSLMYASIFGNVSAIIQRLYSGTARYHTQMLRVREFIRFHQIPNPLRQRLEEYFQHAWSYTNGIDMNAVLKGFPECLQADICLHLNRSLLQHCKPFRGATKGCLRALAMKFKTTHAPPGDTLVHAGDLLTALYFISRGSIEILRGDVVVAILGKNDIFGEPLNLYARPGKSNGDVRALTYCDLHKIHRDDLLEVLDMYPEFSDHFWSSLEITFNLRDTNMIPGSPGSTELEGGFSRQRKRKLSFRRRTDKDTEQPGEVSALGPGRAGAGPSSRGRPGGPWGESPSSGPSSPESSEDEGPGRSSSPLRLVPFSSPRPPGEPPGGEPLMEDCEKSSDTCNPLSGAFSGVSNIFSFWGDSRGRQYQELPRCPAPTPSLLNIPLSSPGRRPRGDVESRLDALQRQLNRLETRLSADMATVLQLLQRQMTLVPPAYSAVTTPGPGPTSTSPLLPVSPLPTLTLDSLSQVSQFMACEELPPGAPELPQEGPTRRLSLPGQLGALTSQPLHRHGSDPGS
Genome polyprotein, sequence (Q2Q167 whole entry): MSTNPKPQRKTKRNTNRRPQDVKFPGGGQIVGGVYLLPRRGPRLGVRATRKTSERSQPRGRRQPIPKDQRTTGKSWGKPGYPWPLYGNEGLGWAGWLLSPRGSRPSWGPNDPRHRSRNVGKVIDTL
Induced myeloid leukemia cell differentiation protein Mcl-1, sequence (Q07820 whole entry): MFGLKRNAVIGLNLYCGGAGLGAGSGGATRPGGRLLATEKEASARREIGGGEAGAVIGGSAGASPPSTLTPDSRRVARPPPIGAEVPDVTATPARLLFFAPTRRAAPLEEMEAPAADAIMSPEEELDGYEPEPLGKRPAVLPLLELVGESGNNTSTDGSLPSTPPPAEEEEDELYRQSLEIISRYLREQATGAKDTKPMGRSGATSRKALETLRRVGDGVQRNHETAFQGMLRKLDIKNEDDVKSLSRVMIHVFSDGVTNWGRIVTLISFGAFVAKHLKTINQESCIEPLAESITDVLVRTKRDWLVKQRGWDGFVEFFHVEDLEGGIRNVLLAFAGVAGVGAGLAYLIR

## Cc1cc(Cl)ccc1NC(=S)NNC(=S)Nc1ccc(Cl)cc1C
[1]
  IC50: 3.51 µM (active)

## O=C(Oc1cccc2c(O)cccc12)c1ccccc1
[2]
  EC50: > 150 µM (not active)
[3]
  EC50: 29 µM (active)
[4]
  IC50: 7.47 µM (active)
[5]
  EC50: 63.7 µM (active)

## O=C(CSc1nc(-c2ccccc2)nc2c1Cc1ccccc1O2)Nc1ccc(C(=O)O)cc1
[6]
  IC50: 5.3 µM (active)
[7]
  IC50: 17.1 µM (active)
[8]
  IC50: 6.38 µM (active)
[9]
  IC50: 23.1 µM (inactive)
[10]
  IC50: 164 µM (active)
[11]
  IC50: 35.1 µM (inactive)

## CCN(CC)S(=O)(=O)c1ccc(N2CCOCC2)c(NC(=O)c2c3c(nc4ccccc24)CCC3)c1
[12]
  IC50: > 49.8 µM (not active)
[13]
  IC50: > 83.3 µM (inactive)
[14]
  IC50: 5.07 µM (active)
[15]
  IC50: > 109 µM (inactive)

## CCOc1ccc2nc(/N=C/c3nc(-c4ccccc4)oc3O)sc2c1
[16]
  IC50: 3.76 µM (active)
[17]
  IC50: > 100 µM (active)
[18]
  EC50: 1.69 µM (active)
[19]
  EC50: 14.6 µM (active)

## CCOC(=O)c1ccc(NCc2ccc(N(C)C)cc2)cc1
[20]
  IC50: > 100 µM (active)
